pIC50: −log10 of the molar value.
Biological target: T1, HIV-integrase (Human immunodeficiency virus type 1 group M subtype B, UniProt P12497)
T1 construct: Recombinant integrase (0.26 ng) was incubated with the beads
Experiment: HIV-Integrase Inhibition Activity (SPA strand transfer assay)
Format: biochemical
Details: recombinant integrase, SPA beads, P33 labeled target DNA; read-out: Activity (IC50 class, HIV-integrase inhibition)
Experimental: HIV-Integrase InhibitionActivity. To evaluate in-vitro activity against HIV-integrase, 5 pmole of biotin labeled substrate DNA was bound to 100 μg of Streptavidin coated PVT SPA beads (Amersham Pharmacia Biotech). Recombinant integrase (0.26 ng) was incubated with the beads for 90 min at 37° C. Unbound enzyme was removed by washing the complex followed by addition of inhibitors and 0.1 fmol of P33 labeled target DNA. The reaction was stopped by adding EDTA to a final concentration of 10 mM. Samples were counted in TopCountNXT (Packard) and the CPM was used as a measure of integration. The reaction condition was as described in A. Engelman and R. Craigie, J. Virol. 69, 5908-5911 (1995). The sequences of substrate and target DNA were described in Nucleic Acid Research 22, 1121-1122 (1994). Activity equal to A refers to a compound having IC50=0.002 to 0.10 μM while B and C denote compounds having IC50=0.1 to 1.0 μM and IC50≧1.0 μM respectively.

| Compound | pIC50 |
| --- | --- |
| Pyrimido[2,1-c][1,4]oxazine-2- carboxamide, N-[(5,6-dichloro- 1H-benzimidazol-2-yl)methyl]- 4,6,7,9-tetrahydro-3-hydroxy-9,9- dimethyl-4-oxo- [Example 50] | ≤ 6.00 |
| Cc1cc(CNC(=O)c2nc3n(c(=O)c2O)CCOC3(C)C)cs1 [Example 32, Pyrimido[2,1-c][1,4]oxazine-2-carboxamide, 4,6,7,9-tetrahydro-3-hydroxy-9,9-dimethyl-N-[(5-methyl-3-thienyl)methyl]-4-oxo-] | 7.00 to 8.70 |
| Cc1nc(C)c(CNC(=O)c2nc3n(c(=O)c2O)CCOC3(C)C)s1 [Example 24, Pyrimido[2,1-c][1,4]oxazine-2-carboxamide, N-[(2,4-dimethyl-5-thiazolyl)methyl]-4,6,7,9-tetrahydro-3-hydroxy-9,9-dimethyl-4-oxo-] | 7.00 to 8.70 |
| Pyrimido[2,1-c][1,4]oxazine-2- carboxamide, N-[(4-chloro-3- methyl-5-isoxazolyl)methyl]- 4,6,7,9-tetrahydro-3-hydroxy-9,9- dimethyl-4-oxo- [Example 54] | 6.00 to 7.00 |
| Pyrimido[2,1-c][1,4]oxazine-2- carboxamide, N-[(4-chloro-1- ethyl-1H-pyrazol-5-yl)methyl]- 4,6,7,9-tetrahydro-3-hydroxy-9,9- dimethyl-4-oxo- [Example 71] | 6.00 to 7.00 |
| Cc1ccc(CNC(=O)c2nc3n(c(=O)c2O)CCOC3(C)C)o1 [Example 37, Pyrimido[2,1-c][1,4]oxazine-2-carboxamide, 4,6,7,9-tetrahydro-3-hydroxy-9,9-dimethyl-N-[(5-methyl-2-furanyl)methyl]-4-oxo-] | 7.00 to 8.70 |
| Cc1ccc(CNC(=O)c2nc3n(c(=O)c2O)CCCC32CCC2)o1 [Example 82, 3′-Hydroxy-N-((5-methyl-2-furyl)methyl)-4′-oxo-7′,8′-dihydro-4′H,6′H-spiro[cyclobutane-1,9′-pyrido[1,2-a]pyrimidine]-2′-carboxamide] | 7.00 to 8.70 |
| Pyrimido[2,1-c][1,4]oxazine-2- carboxamide, 4,6,7,9-tetrahydro-3- hydroxy-9,9-dimethyl-4-oxo-N- (1H-pyrazol-3-ylmethyl)- [Example 69] | 6.00 to 7.00 |
| CCn1cc(CNC(=O)c2nc3n(c(=O)c2O)CCOC3(C)C)cn1 [Example 65, Pyrimido[2,1-c][1,4]oxazine-2-carboxamide, N-[(1-ethyl-1H-pyrazol-4-yl)methyl]-4,6,7,9-tetrahydro-3-hydroxy-9,9-dimethyl-4-oxo-] | 6.00 to 7.00 |
| Cc1ccc(CNC(=O)c2nc3n(c(=O)c2O)CCCC32CCC2)s1 [Example 84, 3′Hhydroxy-N-((5-methyl-2-thienyl)methyl)-4′-oxo-7′,8′-dihydro-4′H,6′H-spiro[cyclobutane-1,9′-pyrido[1,2-a]pyrimidine]-2′-carboxamide] | 7.00 to 8.70 |
| CC1(C)OCCn2c1nc(C(=O)NCc1cn3ccccc3n1)c(O)c2=O [Example 15, Pyrimido[2,1-c][1,4]oxazine-2-carboxamide, 4,6,7,9-tetrahydro-3-hydroxy-N-(imidazo[1,2-a]pyridin-2-ylmethyl)-9,9-dimethyl-4-oxo-] | 7.00 to 8.70 |
| CC1(C)OCCn2c1nc(C(=O)NCc1nc3ccccc3[nH]1)c(O)c2=O [Example 22, Pyrimido[2,1-c][1,4]oxazine-2-carboxamide, N-(1H-benzimidazol-2-ylmethyl)-4,6,7,9-tetrahydro-3-hydroxy-9,9-dimethyl-4-oxo-] | ≤ 6.00 |
| Pyrimido[2,1-c][1,4]oxazine-2- carboxamide, N-[(1-ethyl-3- methyl-1H-pyrazol-5-yl)methyl]- 4,6,7,9-tetrahydro-3-hydroxy-9,9- dimethyl-4-oxo- [Example 46] | 6.00 to 7.00 |
| Pyrimido[2,1-c][1,4]oxazine-2- carboxamide, 4,6,7,9-tetrahydro-3- hydroxy-9,9-dimethyl-N-[(5- methyl-3-phenyl-4- isoxazolyl)methy]-4-oxo- [Example 43] | ≤ 6.00 |
| Pyrimido[2,1-c][1,4]oxazine-2- carboxamide, N-[(1-ethyl-5- methyl-1H-pyrazol-4-yl)methyl]- 4,6,7,9-tetrahydro-3-hydroxy-9,9- dimethyl-4-oxo- [Example 64] | 6.00 to 7.00 |
| Cc1cc(C#N)c(CNC(=O)c2nc3n(c(=O)c2O)CCOC3(C)C)s1 [Example 34, Pyrimido[2,1-c][1,4]oxazine-2-carboxamide, N-[(3-cyano-5-methyl-2-thienyl)methyl]-4,6,7,9-tetrahydro-3-hydroxy-9,9-dimethyl-4-oxo-] | 7.00 to 8.70 |
| Pyrimido[2,1-c][1,4]oxazine-2- carboxamide, 4,6,7,9-tetrahydro-3- hydroxy-9,9-dimethyl-4-oxo-N-[2- (2-thienyl)ethyl]- [Example 53] | 6.00 to 7.00 |

| Compound | pIC50 |
| --- | --- |
| Cc1cc(Br)c(CNC(=O)c2nc3n(c(=O)c2O)CCOC3(C)C)s1 [Example 33, Pyrimido[2,1-c][1,4]oxazine-2-carboxamide, N-[(3-bromo-5-methyl-2-thienyl)methyl]-4,6,7,9-tetrahydro-3-hydroxy-9,9-dimethyl-4-oxo-] | 7.00 to 8.70 |
| Cn1cc(CN(Cc2cn(C)nn2)C(=O)c2nc3n(c(=O)c2O)CCOC3(C)C)nn1 [Example 26, Pyrimido[2,1-c][1,4]oxazine-2-carboxamide, 4,6,7,9-tetrahydro-3-hydroxy-9,9-dimethyl-N,N-bis[(1-methyl-1H-1,2,3-triazol-4-yl)methyl]-4-oxo-] | ≤ 6.00 |
| CC1(C)OCCn2c1nc(C(=O)NCc1csc(-c3ccc(Cl)cc3)n1)c(O)c2=O [Example 4, Pyrimido[2,1-c][1,4]oxazine-2-carboxamide, N-[[2-(4-chlorophenyl)-4-thiazolyl]methyl]-4,6,7,9-tetrahydro-3-hydroxy-9,9-dimethyl-4-oxo-] | 6.00 to 7.00 |
| Pyrimido[2,1-c][1,4]oxazine-2- carboxamide, N-[(1,3-diphenyl- 1H-pyrazol-4-yl)methyl]-4,6,7,9- tetrahydro-3-hydroxy-9,9- dimethyl-4-oxo- [Example 66] | 6.00 to 7.00 |
| CC1=CC=C(CNC(=O)c2nc3n(c(=O)c2O)CCOC3(C)C)S1(=O)=O [Example 35, Pyrimido[2,1-c][1,4]oxazine-2-carboxamide, 4,6,7,9-tetrahydro-3-hydroxy-9,9-dimethyl-N-[(5-methyl-1,1-dioxido-2-thienyl)methyl]-4-oxo-] | ≤ 6.00 |
| Cc1nnc(CNC(=O)c2nc3n(c(=O)c2O)CCOC3(C)C)o1 [Example 86, 3-Hydroxy-9,9-dimethyl-N-((5-methyl-1,3,4-oxadiazol-2-yl)methyl)-4-oxo-4,6,7,9-tetrahydropyrimido[2,1-c][1,4]oxazine-2-carboxamide] | ≤ 6.00 |
| Pyrimido[2,1-c][1,4]oxazine-2- carboxamide, N-[(1-ethyl-3- methyl-1H-pyrazol-4-yl)methyl]- 4,6,7,9-tetrahydro-3-hydroxy-9,9- dimethyl-4-oxo- [Example 63] | 6.00 to 7.00 |
| Pyrimido[2,1-c][1,4]oxazine-2- carboxamide, 4,6,7,9-tetrahydro-3- hydroxy-9,9-dimethyl-N-[2-(5- methyl-1H-indol-3-yl)ethyl]-4-oxo- [Example 58] | 6.00 to 7.00 |
| Pyrimido[2,1-c][1,4]oxazine-2- carboxamide, 4,6,7,9-tetrahydro-3- hydroxy-9,9-dimethyl-4-oxo-N- [(2,3,6,7-tetrahydro-1,3,7- trimethyl-2,6-dioxo-1H-purin-8- yl)methyl]- [Example 60] | ≤ 6.00 |
| CSc1ccc(CNC(=O)c2nc3n(c(=O)c2O)CCOC3(C)C)o1 [Example 87, 3-Hydroxy-9,9-dimethyl-N-((5-(methylthio)furan-2-yl)methyl)-4-oxo-4,6,7,9-tetrahydropyrimido[2,1-c][1,4]oxazine-2-carboxamide] | 7.00 to 8.70 |
| Pyrimido[2,1-c][1,4]oxazine-2- carboxamide, N-[(5-chloro-1H- indol-2-yl)methyl]-4,6,7,9- tetrahydro-3-hydroxy-9,9- dimethyl-4-oxo- [Example 62] | 6.00 to 7.00 |
| Pyrimido[2,1-c][1,4]oxazine-2- carboxamide, 4,6,7,9-tetrahydro-3- hydroxy-9,9-dimethyl-N-[(5- methyl-2-phenyl-2H-1,2,3-triazol- 4-yl)methy]-4-oxo- [Example 49] | ≤ 6.00 |
| Pyrimido[2,1-c][1,4]oxazine-2- carboxamide, N-[(4-bromo-1- ethyl-1H-pyrazol-5-yl)methyl]- 4,6,7,9-tetrahydro-3-hydroxy-9,9- dimethyl-4-oxo- [Example 73] | ≤ 6.00 |
| Pyrimido[2,1-c][1,4]oxazine-2- carboxamide, 4,6,7,9-tetrahydro-3- hydroxy-N-[2-(1H-indol-3- yl)ethyl]-9,9-dimethyl-4-oxo- [Example 57] | 6.00 to 7.00 |
| Pyrimido[2,1-c][1,4]oxazine-2- carboxamide, 4,6,7,9-tetrahydro-3- hydroxy-N-[[3-(4-methoxyphenyl)- 5-isoxazolyl]methyl]-9,9-dimethyl- 4-oxo- [Example 48] | ≤ 6.00 |
| CC1(C)OCCn2c1nc(C(=O)NCc1nc3ccccc3s1)c(O)c2=O [Example 92, N-(1,3-Benzothiazol-2-ylmethyl)-3-hydroxy-9,9-dimethyl-4-oxo-4,6,7,9-tetrahydropyrimido[2,1-c][1,4]oxazine-2-carboxamide] | 7.00 to 8.70 |
| Pyrimido[2,1-c][1,4]oxazine-2- carboxamide, 4,6,7,9-tetrahydro-3- hydroxy-N-[3-(5-methoxy-1H- indol-3-yl)propyl]-9,9-dimethyl-4- oxo- [Example 52] | ≤ 6.00 |

Source: patent US7893055B2, “HIV integrase inhibitors” (priority 2006, dated 2011)
